Results: patent US9034905B2, “Synergistic microbicidal combinations” (Rohm and Haas Company, priority 2003, dated 2015)
Where two headings read alike, the source gives them in different places.

Assays:
Type in all cases: cell-based
[1] = system: Aspergillus niger (A. niger—ATCC 16404); experiment: Synergy test, microtiter plate high resolution MIC assay, mold; conditions: for SI (synergy index, Qa/QA+Qb/QB): <1 synergism, 1 additivity, >1 antagonism; for MIC: Aspergillus niger, read-out: MIC of the microbicide acting alone (QA or QB)
Description: (§1) When the sum of Qa/QA and Qb/QB is greater than one, antagonism is indicated. […] The lower the SI, the greater the synergy shown by that particular mixture. The minimum inhibitory concentration (MIC) of a microbicide is the lowest concentration tested under a specific set of conditions that prevents the growth of added microorganisms.
(§2) Synergy tests were conducted using standard microtiter plate assays with media designed for optimal growth of the test microorganism. Minimal salt medium supplemented with 0.2% glucose and 0.1% yeast extract (M9GY medium) was used for testing bacteria; Potato Dextrose Broth (PDB medium) was used for testing yeast and mold. In this method, a wide range of combinations of microbicides was tested by conducting high resolution MIC assays in the presence of various concentrations of MI. High resolution MICs were determined by adding varying amounts of microbicide to one column of a microtitre plate and doing subsequent ten-fold dilutions using an automated liquid handling system to obtain a series of endpoints ranging from 2 ppm to 10,000 ppm active ingredient. […] The bacteria were used at a concentration of about 5×10^6 bacteria per mL and the yeast and mold at 5×10^5 fungi per mL. These microorganisms are representative of natural contaminants in many consumer and industrial applications. […] (yeast and mold) or 30° C. (bacteria).
(§3) In each test, First Component (A) was MI and the Second Component (B) was the other commercial microbicide.

[2] = system: Candida albicans (C. albicans—ATCC 10231); experiment: Synergy test, microtiter plate high resolution MIC assay, yeast; conditions: for SI (synergy index, Qa/QA+Qb/QB): <1 synergism, 1 additivity, >1 antagonism; for MIC: Candida albicans, read-out: MIC of the microbicide acting alone (QA or QB)
Description: as §1, §2, §3

[3] = system: Staphylococcus aureus (S. aureus—ATCC #6538); experiment: Synergy test, microtiter plate high resolution MIC assay, Gram (+) bacteria; conditions: for SI (synergy index, Qa/QA+Qb/QB): <1 synergism, 1 additivity, >1 antagonism; for MIC: Staphylococcus aureus
Description: as §1, §2, §3

[4] = system: Pseudomonas aeruginosa (P. aeruginosa—ATCC #9027); experiment: Synergy test, microtiter plate high resolution MIC assay, Gram (−) bacteria; conditions: for SI (synergy index, Qa/QA+Qb/QB): <1 synergism, 1 additivity, >1 antagonism; for MIC: Pseudomonas aeruginosa, read-out: MIC of the microbicide acting alone (QA or QB)
Description: as §1, §2, §3

[5] = ATCC6538, S. aureus, 72 hours, M9GY medium, 30° C., read-out: MIC of the microbicide acting alone (QA or QB)
[6] = ATCC9027, P. aeruginosa, 24 hours, M9GY medium, 30° C.
[7] = ATCC6538, 72 h, read-out: MIC of the microbicide acting alone (QA or QB), S. aureus, 72 hours, M9GY medium, 30° C.
[8] = ATCC16404, 168 h, A. niger, 1 week, PDB medium, 25° C.
[9] = ATCC10231, C. albicans, 72 hours, PDB medium, 25° C.
[10] = ATCC6538, S. aureus, 24 hours, M9GY medium, 30° C., read-out: MIC of the microbicide acting alone (QA or QB)
[11] = ATCC9027, P. aeruginosa, 48 hours, M9GY medium, 30° C.

Compound | SI (synergy index, Qa/QA+Qb/QB) ([1]; A. niger, 1 week) | SI (synergy index, Qa/QA+Qb/QB) ([2]; C. albicans, 48 hours) | SI (synergy index, Qa/QA+Qb/QB) ([3]; S. aureus, 72 hours) | SI (synergy index, Qa/QA+Qb/QB) ([4]; P. aeruginosa, 72 hours) | MIC [3, 5] [mg/L] | SI (synergy index, Qa/QA+Qb/QB) ([4]; P. aeruginosa, 24 hours) | MIC [4, 6] [mg/L] | SI (synergy index, Qa/QA+Qb/QB) ([2]; C. albicans, 72 hours) | MIC [1, 8] [mg/L] | MIC [2, 9] [mg/L] | further results
zinc pyrithione | 1.00 | 1.00 | 1.00 | 1.00 | – | – | – | – | – | – | MIC of the microbicide acting alone (QA or QB) ([1]; A. niger, 1 week, PDB medium, 25° C.): 80 ppm; MIC of the microbicide acting alone (QA or QB) ([2]; C. albicans, 48 hours, PDB medium, 25° C.): 80 ppm; MIC of the microbicide acting alone (QA or QB) ([3]; S. aureus, 72 hours, M9GY medium, 30° C.): 20 ppm; MIC of the microbicide acting alone (QA or QB) ([4]; P. aeruginosa, 72 hours, M9GY medium, 30° C.): 200 ppm
OCc1ccccc1 [benzyl alcohol] | – | 1.00 | 1.00 | – | 8000 | 1.00 | 6000 | – | – | – | SI (synergy index, Qa/QA+Qb/QB) ([1]; A. niger, 72 hours): 1.00; MIC ([1]; ATCC16404, A. niger, 72 hours, PDB medium, 25° C.): 8000 mg/L; MIC ([2]; ATCC10231, C. albicans, 48 hours, PDB medium, 25° C.): 6000 mg/L
Cn1sccc1=O [2-methyl-3-isothiazolone] | 1.00 | 1.00 | 1.00 | 1.00 | – | 1.00 | – | 1.00 | – | – | SI (synergy index, Qa/QA+Qb/QB) ([1]; A. niger, 72 hours): 1.00; SI (synergy index, Qa/QA+Qb/QB) ([1]; A. niger, 96 hours): 1.00; MIC ([1]; ATCC16404, 72 h): 300 mg/L; MIC ([1]; ATCC16404, 96 h): 300 mg/L; MIC ([1]; ATCC16404, 168 h): 300 mg/L; MIC ([2]; ATCC10231, 48 h): 200 mg/L; MIC ([2]; ATCC10231, 72 h): 200 mg/L; SI (synergy index, Qa/QA+Qb/QB) ([3]; S. aureus, 24 hours): 1.00; MIC ([3]; ATCC6538, 24 h, read-out: MIC of the microbicide acting alone (QA or QB), S. aureus, 24 hours, M9GY medium, 30° C.): 40 mg/L; MIC [3, 7]: 60 mg/L; SI (synergy index, Qa/QA+Qb/QB) ([4]; P. aeruginosa, 48 hours): 1.00; MIC ([4]; ATCC9027, 24 h): 15 mg/L; MIC ([4]; ATCC9027, 48 h): 20 mg/L; MIC ([4]; ATCC9027, 72 h): 20 mg/L
O=C(O)CC(O)(CC(=O)O)C(=O)O [citric acid] | – | – | – | – | – | – | – | – | 10000 | 10000 | MIC [3, 10]: 4000 mg/L; MIC [4, 11]: 6000 mg/L
CC(C)(C)C(=O)C(Oc1ccc(Cl)cc1)n1ccnc1 (stereo not shown) [climbazole] | – | – | – | – | – | – | – | 1.00 | – | 300 | SI (synergy index, Qa/QA+Qb/QB) ([3]; S. aureus, 24 hours): 1.00; MIC [3, 10]: 2000 mg/L
O=C(O)c1ccccc1 [benzoic acid] | 1.00 | 1.00 | 1.00 | 1.00 | – | – | – | – | – | – | MIC ([1]; ATCC16404, 168 h): 10000 mg/L; MIC ([2]; ATCC10231, 48 h): 5000 mg/L; MIC [3, 7]: 6000 mg/L; MIC ([4]; ATCC9027, 72 h): 6000 mg/L
N#CCCC(Br)(C#N)CBr (stereo not shown) [1,2-dibromo-2,4-dicyanobutane] | 1.00 | – | 1.00 | – | 1000 | 1.00 | 800 | 1.00 | 100 | 500 | –
CC1(C)C(=O)N(CO)C(=O)N1CO [1,3-dimethylol-5,5-dimethylhydantoin] | 1.00 | – | 1.00 | – | 200 | 1.00 | 300 | 1.00 | 3000 | 3000 | –
C/C=C/C=C/C(=O)O [sorbic acid] | – | – | 1.00 | – | 10000 | – | – | 1.00 | – | 400 | SI (synergy index, Qa/QA+Qb/QB) ([1]; A. niger, 96 hours): 1.00; MIC ([1]; ATCC16404, A. niger, 96 hours, PDB medium, 25° C.): 4000 mg/L; SI (synergy index, Qa/QA+Qb/QB) ([4]; P. aeruginosa, 48 hours): 1.00; MIC [4, 11]: 10000 mg/L
